{
  "source": "patent US6365593B2",
  "about": "“Methylxanthines in the diagnosis and treatment of autistic disorder” (Repligen Corporation, priority 2000, dated 2002)",
  "key": {"[1]": {"system": "symptoms of autistic disorder", "details": "individuals diagnosed with autistic disorder; cited from earlier work"}, "7-MX level in urine": {"system": "7-MX level in urine", "assay": "Double blind study: urinary 7-MX in autistic children after secretin or placebo", "assay_type": "in vivo, human", "details": "groups 0 and 1, basal vs one week after secretin", "excerpt": "The urine samples of a double blind study on the effects of secretin on autistic children were available for further investigation on the changes of 7-MX after secretin treatment. Participants were divided into two groups. One group received secretin first, then placebo, and the other group received placebo first, then secretin. Three samples were collected for each subject: (i) basal urine, (ii) one week after secretin, (iii) one week after placebo. The changes of 7-MX level are shown in FIG. 8 (changes of 7-MX levels in double blind group “0”) and FIG. 9 (changes of 7-MX in double blind group “1”) for the two groups of patients. […] Only one subject in group 1 was an exception, where the basal 7-MX level was 10 times higher than the average."}, "[2]": {"system": "7-MX levels in the first morning urine", "assay": "7-MX levels in first morning urine of autistic subjects after secretin infusion (time course)", "assay_type": "in vivo, human", "method": "Urine samples from individuals, e.g., children, suspected of having autistic disorder are collected in 50 ml polypropylene centrifuge tubes and stored at a temperature below freezing, e.g., at −20° C. The samples are later thawed and centrifuged before pre-purification by solid phase extraction using e.g., SEP-PAK™ columns. The following is a suitable protocol for SEP-PAK™ extraction of one urine sample:\nSuitable HPLC conditions to detect and analyze the methylxanthines and xanthines in a urine sample are as follows:\nSamples are normalized for urinary output and variations in dilution using a standard creatinine assay. A portion of each sample is assayed to determine the creatinine content. Each sample is then diluted with water to achieve a standard creatinine concentration of […] in 100 μl of the sample.\nOnce the urine samples are properly pretreated, the level of methylxanthine, e.g., 7-MX, or xanthine is determined. […]\nSamples of urine from autistic and non-autistic subjects were collected and analyzed for the presence of various metabolites before and after secretin treatment. Urine samples were analyzed by HPLC with a 4.5×100 mm C18 column detected at 215 nm and 280 nm. […]\nThe 7-MX levels in the first morning urine of autistic subjects after secretin treatment were monitored. […]"}},
  "note": "“Also recorded” adds a separate entry of the source.",
  "data": [
    {"substance": "secretin: a hormone shown to improve symptoms of autistic disorder; stimulates secretion of pancreatic bicarbonate fluid", "values": [
      {"measurement": "effect on symptoms of autistic disorder", "setting": "[1]", "value": "improve symptoms"},
      {"measurement": "change of urinary 7-MX level one week after secretin", "setting": "7-MX level in urine", "value": "increased or stayed at the same level, but did not decrease; also recorded: increased the excretion of 7-MX and other methylxanthines"},
      {"measurement": "change of 7-MX level (HPLC peak RT5.5) in urine after secretin treatment", "setting": "[2]; autistic children, first morning urine, after secretin infusion", "value": "increase in size after secretin treatment in some children; also recorded: increases during the first week after secretin infusion and then decreases; also recorded: increased, and then decreased after about one week"},
      {"measurement": "dose dependence of urinary 7-MX level after secretin", "setting": "[2]; one autistic child, first treatment about 4 μg, second about 15 μg secretin", "value": "a higher dose of secretin would lead to a higher level of 7-MX in the urine"}
    ]}
  ]
}
